From paper PMC3548994 (Biochemistry, 2012)
Non-standard residues stand in square brackets, D forms with d. No end group written: not given here. pT = C[C@@H](OP(=O)(O)O)[C@H](N)C(=O)O

Tests used:
[1] = molecular target: Pin1-WW domain (WW50, Pin1 residues 1-50) (Homo sapiens, UniProt Q13526); assay: NMR titration of ^15N-WW50 with phosphate or HEPES; assay type: binding; conditions: at 10 mM buffer anion and 1 mM WW domain, calculated from KD
[2] = system: Pin1-WW domain binding surface; assay: HSQC NMR of WW53 and mutants versus WW50
[3] = molecular target: Pin1-WW domain construct WW50 (Pin1 residues 1-50) (UniProt Q13526 1-50, 15N-labelled (uniform) in the NMR titrations); assay: NMR titration
[4] = C-terminal mutants of WW53 compared with WW53 and WW50

Row | Molecule | WW domain bound to buffer anion [1] | HSQC peak shifts of key binding surface residues versus WW53 [2, 4] | other results
1 | WW53 E51A/P52A: WW53 construct (Pin1 residues 1-53) with E51A/P52A mutations (MADEEKLPPGWEKRMSRSSGRVYYFNHITNASQWERPSGNSSSGGKNGQGAAA; residues 1-53 (WW domain); UniProt Q13526 1-53, looked up, variant E51A P52A) |  | progressive peak shifts for key binding surface residues | 
2 | WW53 E51A: WW53 construct (Pin1 residues 1-53) with E51A mutation (MADEEKLPPGWEKRMSRSSGRVYYFNHITNASQWERPSGNSSSGGKNGQGAPA; residues 1-53 (WW domain); UniProt Q13526 1-53, looked up, variant E51A) |  | progressive peak shifts for key binding surface residues | HSQC peak shifts of key binding surface residues versus WW53 ([2]; C-terminal mutants of WW53 compared with WW53 and WW50, listed as E51A): progressively shifted some key binding surface peaks toward their WW50 positions
3 | GVVEVDAAV[pT]PEERHLSKMQQNGY (peptide, UniProt P05067-4 659-682, looked up) [phosphopeptide representing APP residues 659-682 phosphorylated at T668 (pAPP659-682)] |  |  | koff [3]: 2040 s⁻¹; kon [3]: 9.1e+07 M⁻¹ s⁻¹

Second part, led by results:

Row | WW domain bound to buffer anion [1] | Molecule | HSQC peak shifts of key binding surface residues versus WW53 [2, 4] | other results
4 | 6% | O=S(=O)(O)CCN1CCN(CCO)CC1 [HEPES] |  | 
5 | 15% | O=P(O)(O)O [phosphate, sodium phosphate] |  | 
